ChEMBL document CHEMBL4732068, “The discovery of novel antitrypanosomal 4-phenyl-6-(pyridin-3-yl)pyrimidines” (Eur J Med Chem, 2021)
Calls of active or inactive are those of the source.

How the values were obtained:
[1] = target: T1, Cytochrome P450 1A2 (Homo sapiens, UniProt P05177); assay: Inhibition of CYP1A2 in human liver microsomes by luminescence based P450-[…] assay; format: ADME
T1 sequence (P05177 whole entry): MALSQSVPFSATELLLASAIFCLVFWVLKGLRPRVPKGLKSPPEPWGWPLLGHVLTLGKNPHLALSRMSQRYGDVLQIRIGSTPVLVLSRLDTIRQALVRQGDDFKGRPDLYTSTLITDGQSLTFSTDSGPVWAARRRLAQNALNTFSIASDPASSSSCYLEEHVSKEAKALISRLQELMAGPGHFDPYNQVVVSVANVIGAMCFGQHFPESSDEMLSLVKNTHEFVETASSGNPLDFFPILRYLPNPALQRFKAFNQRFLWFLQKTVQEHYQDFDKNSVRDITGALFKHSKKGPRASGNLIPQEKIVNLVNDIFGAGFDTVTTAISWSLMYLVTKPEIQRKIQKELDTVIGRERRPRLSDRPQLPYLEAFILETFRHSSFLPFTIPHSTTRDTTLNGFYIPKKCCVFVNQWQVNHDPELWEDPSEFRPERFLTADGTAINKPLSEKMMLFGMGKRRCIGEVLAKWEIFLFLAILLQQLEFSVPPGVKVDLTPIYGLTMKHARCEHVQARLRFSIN

[2] = target: Cytochrome P450 2C9 (Homo sapiens, UniProt P11712); assay: Inhibition of CYP2C9 in human liver microsomes by luminescence based P450-[…] assay
Cytochrome P450 2C9, sequence (P11712 whole entry): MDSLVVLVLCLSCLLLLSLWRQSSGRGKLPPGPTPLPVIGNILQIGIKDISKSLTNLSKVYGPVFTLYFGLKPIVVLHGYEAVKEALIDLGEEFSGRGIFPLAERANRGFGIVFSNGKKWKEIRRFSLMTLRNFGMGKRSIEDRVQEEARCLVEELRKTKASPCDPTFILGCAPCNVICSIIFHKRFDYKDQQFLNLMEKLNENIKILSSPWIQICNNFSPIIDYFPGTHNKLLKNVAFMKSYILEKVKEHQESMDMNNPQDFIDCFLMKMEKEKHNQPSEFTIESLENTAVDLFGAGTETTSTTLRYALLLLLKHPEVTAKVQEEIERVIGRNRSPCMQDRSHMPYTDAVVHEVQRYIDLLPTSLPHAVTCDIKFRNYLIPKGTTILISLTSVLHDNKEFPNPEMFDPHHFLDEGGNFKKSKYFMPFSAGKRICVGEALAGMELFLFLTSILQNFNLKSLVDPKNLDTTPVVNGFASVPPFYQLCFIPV

[3] = target: Cytochrome P450 2C19 (Homo sapiens, UniProt P33261); assay: Inhibition of CYP2C19 in human liver microsomes by luminescence based P450-[…] assay; format: ADME
Cytochrome P450 2C19, sequence (P33261 whole entry): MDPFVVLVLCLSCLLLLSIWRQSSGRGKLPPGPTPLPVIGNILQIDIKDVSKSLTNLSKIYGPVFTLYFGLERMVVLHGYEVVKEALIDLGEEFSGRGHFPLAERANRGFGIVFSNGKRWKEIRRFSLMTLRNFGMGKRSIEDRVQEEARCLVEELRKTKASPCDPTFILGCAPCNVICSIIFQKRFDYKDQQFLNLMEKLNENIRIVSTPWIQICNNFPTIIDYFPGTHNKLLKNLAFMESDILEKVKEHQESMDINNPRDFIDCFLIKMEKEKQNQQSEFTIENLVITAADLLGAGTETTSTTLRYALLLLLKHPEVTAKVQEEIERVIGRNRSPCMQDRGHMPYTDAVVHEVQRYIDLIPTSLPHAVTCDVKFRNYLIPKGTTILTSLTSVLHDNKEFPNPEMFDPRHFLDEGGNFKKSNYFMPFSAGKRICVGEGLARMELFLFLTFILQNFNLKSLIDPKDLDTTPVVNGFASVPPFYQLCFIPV

[4] = target: Histone deacetylase 1 (Homo sapiens) (UniProt Q13547); assay: Inhibition of recombinant human HDAC1 by fluorescence based microplate reader analysis
Histone deacetylase 1 (Homo sapiens), sequence (Q13547 whole entry): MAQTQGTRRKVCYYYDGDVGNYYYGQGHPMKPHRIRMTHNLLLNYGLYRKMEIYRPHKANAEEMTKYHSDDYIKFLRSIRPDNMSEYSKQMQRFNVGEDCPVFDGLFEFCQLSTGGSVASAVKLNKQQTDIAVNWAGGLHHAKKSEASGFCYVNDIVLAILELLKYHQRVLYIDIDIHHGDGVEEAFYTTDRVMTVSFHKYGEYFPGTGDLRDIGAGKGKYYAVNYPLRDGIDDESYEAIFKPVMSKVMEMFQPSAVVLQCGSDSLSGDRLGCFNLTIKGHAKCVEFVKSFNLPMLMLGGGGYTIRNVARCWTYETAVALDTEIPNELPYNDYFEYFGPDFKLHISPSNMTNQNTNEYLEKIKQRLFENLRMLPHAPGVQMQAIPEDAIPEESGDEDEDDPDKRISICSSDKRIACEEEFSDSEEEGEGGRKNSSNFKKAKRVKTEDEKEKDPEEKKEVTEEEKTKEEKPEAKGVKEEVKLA

[5] = target: Histone deacetylase 3 (Homo sapiens) (UniProt O15379); assay: Inhibition of recombinant human HDAC3 by fluorescence based microplate reader analysis
Histone deacetylase 3 (Homo sapiens), sequence (O15379 whole entry): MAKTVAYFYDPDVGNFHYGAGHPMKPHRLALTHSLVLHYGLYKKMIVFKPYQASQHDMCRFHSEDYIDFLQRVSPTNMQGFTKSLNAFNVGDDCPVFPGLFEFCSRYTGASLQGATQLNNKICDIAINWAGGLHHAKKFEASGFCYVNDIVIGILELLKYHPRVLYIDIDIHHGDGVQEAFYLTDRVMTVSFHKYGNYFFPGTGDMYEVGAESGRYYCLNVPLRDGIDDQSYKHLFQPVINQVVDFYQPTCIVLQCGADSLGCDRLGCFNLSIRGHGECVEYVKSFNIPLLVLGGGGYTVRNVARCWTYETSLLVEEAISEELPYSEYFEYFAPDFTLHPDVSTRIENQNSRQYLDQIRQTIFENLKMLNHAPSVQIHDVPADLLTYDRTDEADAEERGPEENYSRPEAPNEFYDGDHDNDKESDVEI

[6] = target: T2, Protein deacetylase HDAC6 (Homo sapiens) (UniProt Q9UBN7); assay: Inhibition of recombinant human HDAC6 by fluorescence based microplate reader analysis
T2 sequence (whole entry): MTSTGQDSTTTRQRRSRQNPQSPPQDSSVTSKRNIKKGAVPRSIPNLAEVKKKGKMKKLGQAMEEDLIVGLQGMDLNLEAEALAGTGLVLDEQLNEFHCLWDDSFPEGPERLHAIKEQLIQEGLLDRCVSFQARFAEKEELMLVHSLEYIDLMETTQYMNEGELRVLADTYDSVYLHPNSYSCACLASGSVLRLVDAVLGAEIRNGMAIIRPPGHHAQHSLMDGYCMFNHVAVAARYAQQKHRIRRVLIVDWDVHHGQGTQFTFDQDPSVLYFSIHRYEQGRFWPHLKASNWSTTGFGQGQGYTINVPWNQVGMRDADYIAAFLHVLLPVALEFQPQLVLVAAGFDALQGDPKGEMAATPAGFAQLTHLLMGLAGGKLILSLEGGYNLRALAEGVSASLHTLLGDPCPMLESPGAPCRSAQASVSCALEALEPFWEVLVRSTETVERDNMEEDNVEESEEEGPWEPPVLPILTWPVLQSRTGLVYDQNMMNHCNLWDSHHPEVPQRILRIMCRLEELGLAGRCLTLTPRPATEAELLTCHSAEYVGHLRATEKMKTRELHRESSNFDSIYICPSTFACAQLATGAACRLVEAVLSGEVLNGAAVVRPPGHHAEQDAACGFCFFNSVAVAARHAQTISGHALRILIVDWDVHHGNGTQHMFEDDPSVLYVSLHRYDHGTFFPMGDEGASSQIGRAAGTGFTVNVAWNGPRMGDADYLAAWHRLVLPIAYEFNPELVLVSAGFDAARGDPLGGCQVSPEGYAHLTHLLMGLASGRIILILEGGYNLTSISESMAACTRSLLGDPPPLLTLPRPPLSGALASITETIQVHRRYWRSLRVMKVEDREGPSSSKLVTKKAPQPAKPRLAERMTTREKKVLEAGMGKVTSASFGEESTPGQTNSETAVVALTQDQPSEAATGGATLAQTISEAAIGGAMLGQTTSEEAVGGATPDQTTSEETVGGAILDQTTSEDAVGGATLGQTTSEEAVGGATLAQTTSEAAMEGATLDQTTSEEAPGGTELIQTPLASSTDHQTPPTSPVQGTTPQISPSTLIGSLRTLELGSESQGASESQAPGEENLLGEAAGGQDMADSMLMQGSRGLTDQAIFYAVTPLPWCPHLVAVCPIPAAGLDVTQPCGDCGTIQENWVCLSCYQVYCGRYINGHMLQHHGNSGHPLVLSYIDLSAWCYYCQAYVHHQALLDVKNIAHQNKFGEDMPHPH

COc1ccccc1-c1cc(-c2cccnc2)nc(N)n1
inactive: inhibition [4] | inhibition [5] | inhibition [6]
Active: inhibition (INH) [1] | inhibition (INH) [2] | inhibition (INH) [3]
